Numbered stars: 1 amine (or outer) side, 2 acyl side, 3 side chain; on linkers, the order of the positions; unused ones are H or OH. Bridge positions count the residues as written; N and C are the ends. Square brackets hold non-standard residues; d marks the D form. Peptide text beside a SMILES is read from it. I, II: the chains in the order shown. Actinocin(9to1) = Cc1c2oc3c(C)ccc(C(=O)[*:1])c3nc-2c(C(=O)[*:2])c(N)c1=O; NMeV = CN[C@H](C(=O)O)C(C)C; Sar = CNCC(=O)O
Key:
[1] = system: dsRNA in neurons, hESCs, HEK-293T and HeLa cells; assay: J2 staining of dsRNA after RNA polymerase inhibitor treatment; type: cell-based, human
Method: (§1) We transiently treated neurons with different RNA polymerase inhibitors for 12 hours prior to J2 staining to determine if RNA polymerase II (POLII) or mitochondrial RNA polymerase (POLRMT) give rise to neuronal dsRNA. The following inhibitors were used: actinomycin D (ActD), which inhibits both POLII and POLRMT (16); α-amanitin, a POLII inhibitor; and IMT1, a POLRMT-specific inhibitor (25). […] By quantifying depletion of dsRNA upon single treatments with α-amanitin or IMT1 treatment, we calculated the proportional contribution of POLII- or POLRMT-derived dsRNAs, respectively. We applied this analysis to various cell types. In HeLa cells, roughly 90% of dsRNA was derived from POLRMT. This is consistent with a prior study that concluded that roughly 95% of dsRNA in HeLa cells is located in mitochondria (16), validating our analysis. In both hESCs and HEK-293T cells, POLRMT and POLII contribute to roughly 70% and 30% of dsRNA, respectively. Conversely, in neurons, POLRMT and POLII transcripts contribute to 40% and 60% of dsRNA, respectively. […] In summary, mtRNA is the major component of dsRNA in HeLa, HEK-293T, and hESCs. However, in neurons, POLII-derived transcripts, presumably mRNAs, contribute to the bulk of the neuronal dsRNA load.
(§2) For treatment with various polymerase inhibitors, cells were treated for 12 hours prior to harvest with either ActD (10 ug/mL, Sigma), α-amanitin (25 ug/mL, Sigma), or IMT1 (1 uM, MedChemExpress).
Cells grown on glass coverslips were washed with PBS and fixed using 4% paraformaldehyde for 20 minutes at 4° C. Samples were then blocked and permeabilized in PBTG (PBS, 1% BSA, 0.1% Triton-X100, 10% goat serum) for 1 hour at room temperature. Primary antibodies were diluted in PBTG and stained overnight at 4° C. Secondary antibodies (either goat anti-mouse IgG Alexa Fluor 488 or goat anti-rabbit IgG Alexa Fluor 594, Invitrogen (A11001 and A11012)) and DAPI were diluted in PBTG and stained for 1 hour at room temperature prior to mounting. Samples were imaged on an LSM-710 confocal microscope.
Images were processed and analyzed using ImageJ. MFI of individual cells was determined by tracing cell outlines. MFI data depicts 12 individual cells taken from at least 3 independent images. For colocalization analysis, the JACop plugin was used to measure MFI of 4 independent images.

neurons and hESCs = assay: Specificity of RNA polymerase inhibitors (mRNA and mtRNA levels); type: cell-based, human; settings: 12 hours treatment
Method: as §1, §2
RNA was extracted directly from cell samples using the Direct-zol RNA Miniprep kit (Zymo Research). cDNA conversion was completed using the ProtoScript II First Strand cDNA Synthesis kit (New England Biolabs). PowerUp SYBR Green (Thermo Fisher Scientific) and QuantStudio 3 Real-Time PCR System were used for qRT-PCR, and all primers are listed in Table S1. RPS11 or 18S rRNA were used as a housekeeping gene for normalization.

Structure (SMILES)	proportion of dsRNA derived from POLII (depletion of dsRNA upon α-amanitin) ([1]; hESCs and HEK-293T cells)	proportion of dsRNA derived from POLII (depletion of dsRNA upon α-amanitin) ([1]; neurons)	mRNA levels (neurons and hESCs)	dsRNA signal (J2) ([1]; neurons and hESCs, 12 hours treatment)	mtRNA levels (neurons and hESCs)	proportion of dsRNA derived from POLRMT (depletion of dsRNA upon IMT1) ([1]; HeLa cells)	proportion of dsRNA derived from POLRMT (depletion of dsRNA upon IMT1) ([1]; hESCs and HEK-293T cells)	proportion of dsRNA derived from POLRMT (depletion of dsRNA upon IMT1) ([1]; neurons)
CC[C@H](C)[C@@H]1NC(=O)CNC(=O)[C@@H]2Cc3c([nH]c4cc(O)ccc34)[S+]([O-])C[C@@H](NC(=O)CNC1=O)C(=O)N[C@@H](CC(N)=O)C(=O)N1C[C@H](O)C[C@H]1C(=O)N[C@@H]([C@@H](C)[C@@H](O)CO)C(=O)N2 (stereo in doubt) [α-amanitin]	~30%	60%	down-regulated					
Cc1c2oc3c(C)ccc(C(=O)N[C@@H]4C(=O)N[C@H](C(C)C)C(=O)N5CCC[C@H]5C(=O)N(C)CC(=O)N(C)[C@@H](C(C)C)C(=O)O[C@@H]4C)c3nc-2c(C(=O)N[C@@H]2C(=O)N[C@H](C(C)C)C(=O)N3CCC[C@H]3C(=O)N(C)CC(=O)N(C)[C@@H](C(C)C)C(=O)O[C@@H]2C)c(N)c1=O [ActD, actinomycin D] (I: T[dV]P[Sar][NMeV] / II: T[dV]P[Sar][NMeV]; ester I:1-I:C, II:1-II:C; linker I:N-II:N via Actinocin(9to1))			down-regulated	abrogate almost all dsRNA signal	down-regulated			
Cc1ccccc1-c1cc(=O)oc2cc(OC(C)C(=O)N(C)C)ccc12 (stereo not shown) [IMT1]					down-regulated	roughly 90%	roughly 70%	40%
